Our source for the relative viability values is the supplement of paper PMC10307832.

Holding throughout (assay): relative viability (nuclei count vs DMSO), 5 days (fraction); higher = more cells survive
Compound in one experiment: COc1cccc2c1C(=O)c1c(O)c3c(c(O)c1C2=O)C[C@@](O)(C(=O)CO)C[C@@H]3O[C@H]1C[C@H](N)[C@H](O)[C@H](C)O1 [Doxorubicin]
The method in brief: (§1)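 Only plates meeting two conditions passed: control CV below 25% and at least one doubling. Lung cancer cell lines, kept overnight at 37 °C in 1536-well plates, were pinned with five library-drug doses (not always all listed) √10 apart on vehicle-anchored plates and grown 5 days without medium change. A one-step fix, permeabilisation and Hoechst stain preceded 4× imaging and MetaXpress nuclear counting. Viability equals treated-well nuclei divided by vehicle-well nuclei, as the median over plates.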

Compound in another experiment: COC1=C(C=C(C=C1)C2=CC3=NC=CN3C(=N2)NC4=C(C=CC=N4)C(=O)N)OC [BAY61-3606]
The essentials:
as §1

Compound in the experiment “BAY61-3606 + Foretinib”: COC1=C(C=C(C=C1)C2=CC3=NC=CN3C(=N2)NC4=C(C=CC=N4)C(=O)N)OC [BAY61-3606] + COc1cc2c(Oc3ccc(NC(=O)C4(C(=O)Nc5ccc(F)cc5)CC4)cc3F)ccnc2cc1OCCCN1CCOCC1 [Foretinib] (partner 0.25 µM)
The essentials:
(§2)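 Lung cancer cell lines in 1536-well plates got either a single drug or a fixed anchor-drug dose together with five library-drug doses (not always all listed) in √10 steps, by pin tool, on the day after seeding. Nuclei were counted after 5 days, and relative viability is the treated-to-vehicle ratio of nuclei counts. Values are medians of duplicate plates.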

Compound in experiment [1]: COc1cccc2c1C(=O)c1c(O)c3c(c(O)c1C2=O)C[C@@](O)(C(=O)CO)C[C@@H]3O[C@H]1C[C@H](N)[C@H](O)[C@H](C)O1 [Doxorubicin] + CC(=O)c1c(C)c2cnc(Nc3ccc(N4CCNCC4)cn3)nc2n(C2CCCC2)c1=O [Palbociclib] (partner 0.5 µM)
The essentials: as §2

Consider UMC-11, for which the relative viability is 0.974 with Doxorubicin (0.001 µM); 1.06 with Doxorubicin (0.003162 µM); 0.913 with Doxorubicin (0.01 µM); 0.692 with Doxorubicin (0.03162 µM); 0.715 with Doxorubicin (0.1 µM); 1.1 in the experiment with BAY61-3606 (0.02 µM). The relative viability was 1.05 with BAY61-3606 (0.06325 µM); 0.955 with BAY61-3606 (0.2 µM); 1.06 with BAY61-3606 (0.6325 µM); 0.991 in the experiment with BAY61-3606 (2 µM); 1.23 with BAY61-3606 + Foretinib (first compound 0.02 µM); 1.12 with BAY61-3606 + Foretinib (first compound 0.06325 µM). For the same cell line, the relative viability was 1.05 with BAY61-3606 + Foretinib (first compound 0.2 µM); 1.15 with BAY61-3606 + Foretinib (first compound 0.6325 µM); 1.02 with BAY61-3606 + Foretinib (first compound 2 µM); 0.378 in experiment [1] (first compound 0.001 µM); 0.339 in experiment [1] (first compound 0.003162 µM); 0.314 in experiment [1] (first compound 0.01 µM). Moreover, the relative viability is 0.256 in experiment [1] (first compound 0.03162 µM) and 0.325 in experiment [1] (first compound 0.1 µM).
